Laboratory results: ChEMBL document CHEMBL4138236, “Trisubstituted barbiturates and thiobarbiturates: Synthesis and biological evaluation as xanthine oxidase inhibitors, antioxidants, antibacterial and anti-proliferative agents” (Eur J Med Chem, 2018)

What was measured:
[1] = Antioxidant activity assessed as DPPH radical scavenging activity at 30 uM after 20 mins by spectrophotometric method relative to control; format: functional
[2] = Antioxidant activity assessed as DPPH radical scavenging activity at 30 uM after 60 mins by spectrophotometric method relative to control; format: functional
[3] = test system: MCF7; assay: Antiproliferative activity against human MCF7 cells at 30 uM after 72 hrs by MTT assay relative to control; format: functional
[4] = test system: NHDF; assay: Antiproliferative activity against NHDF at 30 uM after 72 hrs by MTT assay relative to control; format: cell-based; conditions: human
[5] = test system: Bacillus cereus; assay: Antibacterial activity against Bacillus cereus ATCC 1178 after 24 hrs by broth microdilution method; format: functional; conditions: ATCC 1178, 24 h
[6] = test system: Staphylococcus aureus; assay: Antibacterial activity against Staphylococcus aureus ATCC 25923 after 24 hrs by broth microdilution method; format: functional; conditions: ATCC 25923, 24 h
[7] = test system: Escherichia coli; assay: Antibacterial activity against Escherichia coli ATCC 25922 after 24 hrs by broth microdilution method; format: functional; conditions: ATCC 25922, 24 h
[8] = test system: Klebsiella pneumoniae; assay: Antibacterial activity against Klebsiella pneumoniae ATCC 13883 after 24 hrs by broth microdilution method; format: functional; conditions: ATCC 13883, 24 h
[9] = test system: Pseudomonas aeruginosa; assay: Antibacterial activity against Pseudomonas aeruginosa ATCC 27853 after 24 hrs by broth microdilution method; format: functional; conditions: ATCC 27853, 24 h
[10] = test system: Salmonella typhimurium; assay: Antibacterial activity against Salmonella typhimurium ATCC 13311 after 24 hrs by broth microdilution method; format: functional, Salmonella enterica subsp. enterica serovar Typhimurium; conditions: Salmonella enterica, ATCC 13311, 24 h
[11] = test system: Acinetobacter baumannii; assay: Antibacterial activity against Acinetobacter baumannii LMG 1025 after 24 hrs by broth microdilution method; format: functional; conditions: LMG 1025, 24 h

| SMILES | Activity [1] | Activity [2] | Activity [3] | Activity [4] | MIC [5] | MIC [6] | MIC [7] | MIC [8] | MIC [9] | MIC [10] | MIC [11] |
| --- | --- | --- | --- | --- | --- | --- | --- | --- | --- | --- | --- |
| O=C1NC(=S)NC(=O)C1=CNc1ccccc1[N+](=O)[O-] | -12.5% | -11.8% | 80.23% | 78.75% | > 200 µM | > 200 µM | > 200 µM | > 200 µM | > 200 µM | > 200 µM | > 200 µM |
| O=C1NC(=S)NC(=O)C1=CNc1ccccc1C(=O)O | -0.56% | -0.57% | 42.53% | 79.11% | > 200 µM | > 200 µM | > 200 µM | > 200 µM | > 200 µM | > 200 µM | > 200 µM |
| CN1C(=O)C(=Cc2ccccc2[N+](=O)[O-])C(=O)N(C)C1=O | -0.8% | -1.77% | 54.64% | 79.11% | > 200 µM | > 200 µM | > 200 µM | > 200 µM | > 200 µM | > 200 µM | > 200 µM |
| O=C(O)c1ccccc1NC=C1C(=O)N(c2ccccc2)C(=S)N(c2ccccc2)C1=O | -2.45% | -2.27% | 43.11% | 82.24% | > 200 µM | > 200 µM | > 200 µM | > 200 µM | > 200 µM | > 200 µM | > 200 µM |
| CC(=O)C1C(=O)N(C)C(=O)N(C)C1=O | -9.14% | -9.91% | 84.11% | 94.14% | > 200 µM | > 200 µM | > 200 µM | > 200 µM | > 200 µM | > 200 µM | > 200 µM |
| CC(NN)=C1C(=O)N(c2ccccc2)C(=S)N(c2ccccc2)C1=O | 31.3% | 41.9% | 99.93% | 86.68% | > 200 µM | > 200 µM | > 200 µM | > 200 µM | > 200 µM | > 200 µM | > 200 µM |
| CN1C(=O)C(=CNC(N)=O)C(=O)N(C)C1=O | 2.1% | 2.91% | 97.13% | 86.84% | > 200 µM | > 200 µM | > 200 µM | > 200 µM | > 200 µM | > 200 µM | > 200 µM |
| O=C1C(=Cc2ccccc2[N+](=O)[O-])C(=O)N(c2ccccc2)C(=S)N1c1ccccc1 | 9% | 11.3% | 67.93% | 77.56% | > 200 µM | > 200 µM | > 200 µM | > 200 µM | > 200 µM | > 200 µM | > 200 µM |
| O=C1NC(=O)C(=CNc2ccccc2C(=O)O)C(=O)N1 | 1.75% | 1.98% | 54.9% | 84.62% | > 200 µM | > 200 µM | > 200 µM | > 200 µM | > 200 µM | > 200 µM | > 200 µM |
| Nc1ccccc1NC=C1C(=O)NC(=S)NC1=O | 6.1% | 17.3% | 64.55% | 70.13% | > 200 µM | > 200 µM | > 200 µM | > 200 µM | > 200 µM | > 200 µM | > 200 µM |
| O=C1NC(=O)C(=Cc2ccccc2[N+](=O)[O-])C(=O)N1 | -0.9% | -0.78% | 58.88% | 72.88% | > 200 µM | > 200 µM | > 200 µM | > 200 µM | > 200 µM | > 200 µM | > 200 µM |
| N#CC(c1ccc(Br)cc1)c1c([O-])[nH]c(=S)[nH]c1=O.[Na+] (configuration not stated) | -9.22% | -8.33% | 90.08% | 89.93% | > 200 µM | > 200 µM | > 200 µM | > 200 µM | > 200 µM | > 200 µM | > 200 µM |
| CC(NN)=C1C(=O)NC(=O)NC1=O | 11.6% | 25.4% | 98.27% | 82.68% | > 200 µM | > 200 µM | > 200 µM | > 200 µM | > 200 µM | > 200 µM | > 200 µM |
| CN1C(=O)C(=CNc2cc([N+](=O)[O-])ccc2Cl)C(=O)N(C)C1=O | -0.82% | 0% | 50.07% | 66.98% | > 200 µM | > 200 µM | > 200 µM | > 200 µM | > 200 µM | > 200 µM | > 200 µM |
| O=C1NC(=S)NC(=O)C1=CNc1cc([N+](=O)[O-])ccc1Cl | -4.31% | -3.68% | 63.7% | 70.28% | > 200 µM | > 200 µM | > 200 µM | > 200 µM | > 200 µM | > 200 µM | > 200 µM |
| Oc1ncnc2[nH]ncc12 [ALLOPURINOL] | -6.02% | -5.41% | – | – | – | – | – | – | – | – | – |
| CC(NNc1ccc([N+](=O)[O-])cc1[N+](=O)[O-])=C1C(=O)NC(=O)NC1=O | 17.6% | 18.1% | 50.01% | 79.47% | > 200 µM | > 200 µM | > 200 µM | > 200 µM | > 200 µM | > 200 µM | > 200 µM |
| COc1ccc(C=C2C(=O)NC(=O)NC2=O)cc1 | -0.97% | 2.63% | 78.75% | 71.59% | > 200 µM | > 200 µM | > 200 µM | > 200 µM | > 200 µM | > 200 µM | > 200 µM |
| CN1C(=O)C(=CNC(N)=S)C(=O)N(C)C1=O | 20.3% | 31.9% | 59.18% | 84.63% | > 200 µM | > 200 µM | > 200 µM | > 200 µM | > 200 µM | > 200 µM | > 200 µM |
| CC(NNc1ccc([N+](=O)[O-])cc1[N+](=O)[O-])=C1C(=O)N(C)C(=O)N(C)C1=O | 28% | 26.7% | 69.95% | 73.63% | > 200 µM | > 200 µM | > 200 µM | > 200 µM | > 200 µM | > 200 µM | > 200 µM |
| NC(=S)NC=C1C(=O)N(c2ccccc2)C(=S)N(c2ccccc2)C1=O | 23.1% | 32% | 90.04% | 95.17% | > 200 µM | > 200 µM | > 200 µM | > 200 µM | > 200 µM | > 200 µM | > 200 µM |
